# Data taken from patent US20250201546A1, “METHOD FOR PROCESSING SUBSTRATE, KIT FOR PROCESSING SUBSTRATE, AND METHOD FOR MANUFACTURING SEMICONDUCTOR SUBSTRATE” (TOKYO OHKA KOGYO CO., LTD., priority 2023, published 2025).
# Assay: Hansen solubility parameter (SP value and terms) of reagents
# Type: physicochemical
# Set-up: unit: MPa^0.5
# Settings: SP^2=δD^2+δP^2+δH^2
# Description: The SP value of Hansen solubility parameter herein is a value obtained by dividing the solubility parameter introduced by Hildebrand into three parameters, the dispersion term OD, the polarity term OP, and the hydrogen bond term OH, and plotting a point in a three-dimensional space (Hansen space, HSP space).
# The dispersion term δD represents the effect due to dispersion force, the polarity term δP represents the effect due to dipole-dipole force, and the hydrogen bond term OH represents the effect due to hydrogen bond force. […]
# δD: The energy derived from dispersion forces between molecules (the dispersion term) δP: The energy derived from polar forces between molecules (the polarity term) δH: The energy derived from hydrogen bond forces between molecules (the hydrogen bond term) The unit of each of the terms is MPa^0.5.
# There is a relationship between Hildebrand's SP value and Hansen's HSP as shown below.
# (Hildebrand's SP)^2=δD^2+δP^2+δH^2
# Suitable examples of the silane coupling agent having a SP value of 15 or more may include the followings. Needless to say, the silane coupling agent used in the present embodiment is not limited to those below.
row,SMILES,SP value
1,"CCO[Si](CCCN)(OCC)OCC [APTES, 3-aminopropyltriethoxysilane]",15.2
2,"CO[Si](CCCNCCN)(OC)OC [AEAPTMS, 3-(2-aminoethylamino) propyltrimethoxysilane]",16.2
3,"CCO[Si](CCCNCCN)(OCC)OCC [AEAPTES, 3-(2-aminoethylamino) propyltriethoxysilane]",15.6
4,"CO[Si](C)(OC)OC [MTMS, methyltrimethoxysilane]",15.2
5,"CO[Si](CCCNCCCCCCN)(OC)OC [AHAPTMS, 3-(6-aminohexylamino) propyltrimethoxysilane]",15.3
6,"CO[Si](CCCN)(OC)OC [APTMS, 3-aminopropyltrimethoxysilane]",15.8
